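96-well plates; 48 h exposure; 5 concentrations. Endpoints by linear interpolation between flanking doses. Not reached: highest tested concentration assigned. GI50: concentration for 50% inhibition of growth. TGI denotes the concentration required for complete inhibition of growth.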
Experiments:
Assay in all cases: NCI tumour cell line growth inhibition, 48 h
SK-MEL-28 melanoma = tested on: SK-MEL-28 melanoma
SK-MEL-2 melanoma = tested on: SK-MEL-2 melanoma
HCT-116 colon = tested on: HCT-116 colon
CCRF-CEM leukemia = tested on: CCRF-CEM leukemia
MALME-3M melanoma = tested on: MALME-3M melanoma
UACC-62 melanoma = tested on: UACC-62 melanoma
TK-10 renal = tested on: TK-10 renal
A498 renal = tested on: A498 renal
RXF 393 renal = tested on: RXF 393 renal
HS 578T breast = tested on: HS 578T breast
786-0 renal = tested on: 786-0 renal
IGROV1 ovarian = tested on: IGROV1 ovarian
SF-539 CNS = tested on: SF-539 CNS
UACC-257 melanoma = tested on: UACC-257 melanoma
MDA-MB-468 breast = tested on: MDA-MB-468 breast
KM12 colon = tested on: KM12 colon
ACHN renal = tested on: ACHN renal
OVCAR-3 ovarian = tested on: OVCAR-3 ovarian
COLO 205 colon = tested on: COLO 205 colon
HCC-2998 colon = tested on: HCC-2998 colon
HOP-92 NSCLC = tested on: HOP-92 NSCLC
SNB-75 CNS = tested on: SNB-75 CNS
HOP-62 NSCLC = tested on: HOP-62 NSCLC
SN12C renal = tested on: SN12C renal
K-562 leukemia = tested on: K-562 leukemia
NCI-H460 lung = tested on: NCI-H460 lung
SF-295 CNS = tested on: SF-295 CNS
SF-268 CNS = tested on: SF-268 CNS
EKVX NSCLC = tested on: EKVX NSCLC
U251 CNS = tested on: U251 CNS
OVCAR-4 ovarian = tested on: OVCAR-4 ovarian
SK-OV-3 ovarian = tested on: SK-OV-3 ovarian
PC-3 prostate = tested on: PC-3 prostate
DU-145 prostate = tested on: DU-145 prostate
A549 NSCLC = tested on: A549 NSCLC
OVCAR-8 ovarian = tested on: OVCAR-8 ovarian
M14 melanoma = tested on: M14 melanoma
NCI-H226 lung = tested on: NCI-H226 lung
OVCAR-5 ovarian = tested on: OVCAR-5 ovarian
SW-620 colon = tested on: SW-620 colon
RPMI-8226 leukemia = tested on: RPMI-8226 leukemia
CAKI-1 renal = tested on: CAKI-1 renal
MCF7 breast = tested on: MCF7 breast
NCI-H23 lung = tested on: NCI-H23 lung
HCT-15 colon = tested on: HCT-15 colon
BT-549 breast = tested on: BT-549 breast
MOLT-4 leukemia = tested on: MOLT-4 leukemia
MDA-MB-435 = tested on: MDA-MB-435
HT29 colon = tested on: HT29 colon
SK-MEL-5 melanoma = tested on: SK-MEL-5 melanoma
HL-60(TB) leukemia = tested on: HL-60(TB) leukemia
NCI/ADR-RES ovarian = tested on: NCI/ADR-RES ovarian
NCI-H522 lung = tested on: NCI-H522 lung
LOX IMVI melanoma = tested on: LOX IMVI melanoma

Compound: C=C1CC[C@@H]2[C@]3(C)COC(c4cn[nH]c4-c4ccc(Br)cc4)O[C@@H]3CC[C@@]2(C)[C@@H]1C/C=C1/C(=O)OCC1O (stereo partly drawn)
- GI50 (SK-MEL-28 melanoma): 2.13 µM
- TGI (SK-MEL-28 melanoma): 4.95 µM
- GI50 (SK-MEL-2 melanoma): 5.85 µM
- TGI (SK-MEL-2 melanoma): 20.8 µM
- GI50 (HCT-116 colon): 1.94 µM
- TGI (HCT-116 colon): 5.19 µM
- GI50 (CCRF-CEM leukemia): 2.81 µM
- TGI (CCRF-CEM leukemia): 44.2 µM
- GI50 (MALME-3M melanoma): 3.98 µM
- TGI (MALME-3M melanoma): 17.7 µM
- GI50 (UACC-62 melanoma): 3.44 µM
- TGI (UACC-62 melanoma): 15.8 µM
- GI50 (TK-10 renal): 18.4 µM
- TGI (TK-10 renal): 33.4 µM
- GI50 (A498 renal): 16.8 µM
- TGI (A498 renal): 30.6 µM
- GI50 (RXF 393 renal): 1.9 µM
- TGI (RXF 393 renal): 4.42 µM
- GI50 (HS 578T breast): 17.7 µM
- TGI (HS 578T breast): > 100 µM
- GI50 (786-0 renal): 5.75 µM
- TGI (786-0 renal): 18.8 µM
- GI50 (IGROV1 ovarian): 13.8 µM
- TGI (IGROV1 ovarian): 30.9 µM
- GI50 (SF-539 CNS): 2.2 µM
- TGI (SF-539 CNS): 5.67 µM
- GI50 (UACC-257 melanoma): 11.8 µM
- TGI (UACC-257 melanoma): 27.5 µM
- GI50 (MDA-MB-468 breast): 2.47 µM
- TGI (MDA-MB-468 breast): 9.41 µM
- GI50 (KM12 colon): 7.16 µM
- TGI (KM12 colon): 29.2 µM
- GI50 (ACHN renal): 2.16 µM
- TGI (ACHN renal): 6.16 µM
- GI50 (OVCAR-3 ovarian): 2.08 µM
- TGI (OVCAR-3 ovarian): 4.49 µM
- GI50 (COLO 205 colon): 4.45 µM
- TGI (COLO 205 colon): 18.1 µM
- GI50 (HCC-2998 colon): 9.11 µM
- TGI (HCC-2998 colon): 21.4 µM
- GI50 (HOP-92 NSCLC): 5.08 µM
- TGI (HOP-92 NSCLC): 22.7 µM
- GI50 (SNB-75 CNS): 7.04 µM
- TGI (SNB-75 CNS): 25.7 µM
- GI50 (HOP-62 NSCLC): 18.9 µM
- TGI (HOP-62 NSCLC): 37.3 µM
- GI50 (SN12C renal): 7.51 µM
- TGI (SN12C renal): 21.5 µM
- GI50 (K-562 leukemia): 2.24 µM
- TGI (K-562 leukemia): 15.4 µM
- GI50 (NCI-H460 lung): 12.6 µM
- TGI (NCI-H460 lung): 29.7 µM
- GI50 (SF-295 CNS): 12.1 µM
- TGI (SF-295 CNS): 25.4 µM
- GI50 (SF-268 CNS): 16.5 µM
- TGI (SF-268 CNS): 42.3 µM
- GI50 (EKVX NSCLC): 4.68 µM
- TGI (EKVX NSCLC): 17.7 µM
- GI50 (U251 CNS): 6.83 µM
- TGI (U251 CNS): 19.9 µM
- GI50 (OVCAR-4 ovarian): 5.02 µM
- TGI (OVCAR-4 ovarian): 32.8 µM
- GI50 (SK-OV-3 ovarian): 16.8 µM
- TGI (SK-OV-3 ovarian): 32.2 µM
- GI50 (PC-3 prostate): 4.08 µM
- TGI (PC-3 prostate): 30.3 µM
- GI50 (DU-145 prostate): 8.24 µM
- TGI (DU-145 prostate): 23.6 µM
- GI50 (A549 NSCLC): 11.1 µM
- TGI (A549 NSCLC): 26.4 µM
- GI50 (OVCAR-8 ovarian): 3.24 µM
- TGI (OVCAR-8 ovarian): 61.9 µM
- GI50 (M14 melanoma): 3.4 µM
- TGI (M14 melanoma): 16.7 µM
- GI50 (NCI-H226 lung): 1.93 µM
- TGI (NCI-H226 lung): 4.32 µM
- GI50 (OVCAR-5 ovarian): 10 µM
- TGI (OVCAR-5 ovarian): 23.1 µM
- GI50 (SW-620 colon): 2.33 µM
- TGI (SW-620 colon): 6.36 µM
- GI50 (RPMI-8226 leukemia): 2.56 µM
- TGI (RPMI-8226 leukemia): > 100 µM
- GI50 (CAKI-1 renal): 8.18 µM
- TGI (CAKI-1 renal): 22 µM
- GI50 (MCF7 breast): 2.13 µM
- TGI (MCF7 breast): 10.4 µM
- GI50 (NCI-H23 lung): 10.5 µM
- TGI (NCI-H23 lung): 23.1 µM
- GI50 (HCT-15 colon): 1.97 µM
- TGI (HCT-15 colon): 5.3 µM
- GI50 (BT-549 breast): 2.88 µM
- TGI (BT-549 breast): 12.3 µM
- GI50 (MOLT-4 leukemia): 2.86 µM
- TGI (MOLT-4 leukemia): 13.6 µM
- GI50 (MDA-MB-435): 3.24 µM
- TGI (MDA-MB-435): 15.3 µM
- GI50 (HT29 colon): 2.8 µM
- TGI (HT29 colon): 10.5 µM
- GI50 (SK-MEL-5 melanoma): 10.4 µM
- TGI (SK-MEL-5 melanoma): 23.4 µM
- GI50 (HL-60(TB) leukemia): 2.3 µM
- TGI (HL-60(TB) leukemia): 17.6 µM
- GI50 (NCI/ADR-RES ovarian): 2.2 µM
- TGI (NCI/ADR-RES ovarian): 6.91 µM
- GI50 (NCI-H522 lung): 2.08 µM
- TGI (NCI-H522 lung): 5.75 µM
- GI50 (LOX IMVI melanoma): 1.37 µM
- TGI (LOX IMVI melanoma): 2.72 µM
